Results reported in paper PMC2829425 (Protein expression and purification, 2010).

Key:
[1] = molecular target: T1, zebrafish monoamine oxidase (zMAO) (Danio rerio, UniProt Q6NSN2); test: irreversible inhibition of purified enzyme; type: biochemical
T1 sequence (Q6NSN2 1-522): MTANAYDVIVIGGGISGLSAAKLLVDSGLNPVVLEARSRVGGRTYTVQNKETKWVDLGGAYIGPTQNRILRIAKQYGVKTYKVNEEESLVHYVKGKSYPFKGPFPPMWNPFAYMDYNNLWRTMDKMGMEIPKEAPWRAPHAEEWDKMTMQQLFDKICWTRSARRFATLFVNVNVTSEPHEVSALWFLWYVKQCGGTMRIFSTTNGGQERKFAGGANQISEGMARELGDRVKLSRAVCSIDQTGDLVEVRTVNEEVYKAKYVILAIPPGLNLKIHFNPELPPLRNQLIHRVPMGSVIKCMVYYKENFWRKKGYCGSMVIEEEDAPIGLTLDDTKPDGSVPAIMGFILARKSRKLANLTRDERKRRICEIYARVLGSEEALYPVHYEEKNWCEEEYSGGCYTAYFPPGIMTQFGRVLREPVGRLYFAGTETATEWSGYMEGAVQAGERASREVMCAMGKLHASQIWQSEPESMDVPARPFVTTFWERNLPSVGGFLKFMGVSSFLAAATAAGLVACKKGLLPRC

[2] = molecular target: T1, zebrafish monoamine oxidase (zMAO); test: steady-state kinetics, benzaldehyde formation at […] nm; type: biochemical; conditions: read-out: Benzylamine
[3] = molecular target: T1, zebrafish monoamine oxidase (zMAO); test: specific activity of purified enzyme, 4-hydroxyquinoline formation at […] nm; type: biochemical
[4] = substrate: NCCc1ccccc1; test: steady-state kinetics, Amplex red/peroxidase-coupled assay; type: biochemical, Danio rerio; conditions: covalent FAD ([…]α-S-cysteinylFAD); pH 7.4; 25.0 °C

Work on `C#CCN(C)C(C)Cc1ccccc1` (stereo not shown) [Deprenyl] yielded an IC50 [1] of 6.5 µM.

In the case of `C#CCN(C)CCCOc1ccc(Cl)cc1Cl` [Clorgyline], the IC50 [1] is reported as 64 µM.

Molecule `NCc1ccccc1` [Benzylamine] has a Km [2] of 82.2 ± 9 µM.

For `NCCC(=O)c1ccccc1N` [Kynuramine], the “specific activity of purified enzyme, 4-hydroxyquinoline formation at 316 nm” value [3] was 1.5 U/mg.

B1: zebrafish monoamine oxidase (zMAO) (Danio rerio) (protein)
chain: T1 sequence (Q6NSN2 1-522)
Molecule B1 has a Km [4] of 86 ± 13 µM, a kcat [4] of 3.4 ± 0.145 s⁻¹ and a kcat/Km [4] of 39500 ± 3170 M⁻¹ s⁻¹.
